# Results as given in US5616556A, “Method of treating rheumatoid arthritis and osteoarthrosis using tetrahydro WS9326A” (Fujisawa Pharmaceutical Co., Ltd., priority 1990, dated 1997).
# Starred links: 1 amine or outer side, 2 acyl side, 3 side chain; linkers in the order of their positions; H or OH if unused. Positions of bridges follow the written chain, without caps; N, C: chain ends. Non-standard residues stand in square brackets, D forms with d. Residues, ends and D or L forms follow the SMILES beside them. *: point of attachment. X2 = CN(/C(=C/c1ccc(O)cc1)C(=O)[*:2])[*:1]; aThr = C[C@H](O)[C@H](N)C(=O)O; X1 = CCCCCc1ccccc1CCC(=O)*
# Experiments:
# rabbits = details: rabbit, in vivo, 8 mg/kg
# Method: (§1) An injectable suspension containing the test compound and other ingredients mentioned below was administered into the knee joint of rabbits (6 males and 6 females) and dogs (3 males and 3 females) twice a week for 4 weeks. The dose was 8 mg/kg for rabbits and 12 mg/kg for dogs.
# dogs = details: dog, in vivo, 12 mg/kg
# Method: as §1
compound,measurement,setting,value
CCCCCc1ccccc1CCC(=O)N[C@@H]1C(=O)N(C)/C(=C/c2ccc(O)cc2)C(=O)N[C@@H](CC(C)C)C(=O)N[C@H](Cc2ccccc2)C(=O)N[C@@H]([C@H](C)O)C(=O)N[C@@H](CC(N)=O)C(=O)N[C@@H](CO)C(=O)O[C@@H]1C [tetrahydro-WS9326A] (X1-T[X2]L[dF][aThr]NS; ester 1-C),death,rabbits,caused death in neither rabbits nor dogs
same,death,dogs,caused death in neither rabbits nor dogs
